Experimental data reported in ChEMBL document CHEMBL5579854, “Targeting Relevant HDACs to Support the Survival of Cone Photoreceptors in Inherited Retinal Diseases: Identification of a Potent Pharmacological Tool with In Vitro and In Vivo Efficacy” (J Med Chem, 2024).
Converted amounts (≈) assume the structure as drawn. The source made the active and inactive calls. No cut-off for these calls is given here.

How the values were obtained:
[1] = test system: Mus musculus; experiment: Upregulation of […] mRNA level in eyes of C57BL/6J mouse model harboring rd10 mutant at 5 to 30 uM, IVT administered bilaterally measured after 5 days by RT-PCR analysis; assay type: functional, tissue-based; details: Eye, dose 5-30 µM, time 5.0 day
[2] = organism: Danio rerio; experiment: Rescue of vision in zebrafish larval dye model harboring atp6v0e1/ucd6 at 100 uM treated for 2 days by OKR analysis; assay type: functional, organism-based; details: time 2.0 day
[3] = Toxicity in Langendorff-perfused Wistar rat heart assessed as effect on QTc prolongation at 0.1 to 30 uM by ECG analysis; assay type: tissue-based; details: dose 0.1-30 µM
[4] = Induction of cone cell survival rate in eyes of C57BL/6J mouse model harboring rd10 mutant at 5 uM, IVT administered bilaterally measured after 5 days by fluorescence microscopy relative to control; assay type: functional, Eye; details: time 5 day
[5] = test system: Cone cell; experiment: Rescue of cone morphology with numerous longer outer segments in eyes of C57BL/6J mouse model harboring rd10 mutant at 5 to 30 uM, IVT administered bilaterally measured after 5 days by fluorescence microscopy; assay type: functional, tissue-based; details: Eye, dose 5-30 µM, time 5.0 day
[6] = test system: Cone cell; experiment: Induction of cone cell survival in eyes of C57BL/6J mouse model harboring rd10 mutant at 5 to 30 uM, IVT administered bilaterally measured after 5 days by IHC analysis; assay type: functional, tissue-based; details: Eye, dose 5-30 µM, time 5.0 day
[7] = Toxicity in zebrafish larval dye model harboring atp6v0e1/ucd6 assessed as morphological abnormalities at 20 to 100 uM treated for 2 days; design: species or system Danio rerio; details: in vivo, 48 h, dose 20-100 µM, time 2 day
[8] = Metabolic stability in human liver microsomes assessed as compound recovery at 10 uM incubated for 60 mins in presence of NADPH by HPLC analysis; assay type: ADME, Microsome; details: read-out: Stability
[9] = Solubility of compound; assay type: physicochemical
[10] = Toxicity in zebrafish larval dye model harboring atp6v0e1/ucd6 assessed as maximum tolerated dose treated for 2 days; design: species or system Danio rerio; details: in vivo, 48 h, time 2 day
[11] = Toxicity in Langendorff-perfused Wistar rat heart assessed as effect on chronotropic activity at 0.1 to 30 uM; assay type: tissue-based; details: dose 0.1-30 µM
[12] = test system: ARPE-19; experiment: Cytoprotective effect against H2O2-induced oxidative stress in human ARPE-19 cells assessed as increase in cell viability at low concentration incubated for 24 hrs followed by H2O2 treatment by MTT assay; assay type: functional, cell-based
[13] = organism: Danio rerio; experiment: Rescue of visual acuity in zebrafish larval dye model harboring atp6v0e1/ucd6 at 100 uM treated for 2 days by OKR analysis; assay type: functional, organism-based; details: time 2.0 day
[14] = test system: Mus musculus; experiment: Downregulation of Rps6kl1 mRNA level in eyes of C57BL/6J mouse model harboring rd10 mutant at 5 to 30 uM, IVT administered bilaterally measured after 5 days by RT-PCR analysis; assay type: functional, tissue-based; details: Eye, dose 5-30 µM, time 5.0 day
[15] = test system: ARPE-19; experiment: Cytotoxicity against human ARPE-19 cells assessed as cell viability at 1 uM incubated for 24 hrs by MTT assay; assay type: toxicity, cell-based; details: arpe-19, 24 h

## O=C(NO)c1ccc(CNC(=O)N2CCc3c(c4ccccc4n3Cc3ccccc3)C2)cc1
[1]
  Activity: Active
[2]
  Activity: Active
[3]
  Activity: Non-Toxic
[4]
  Activity: 4%
[5]
  Activity: Active
[6]
  Activity: Active
[7]
  Activity: Non-Toxic
[8]
  remaining at 1 h, 10 µM: 84%
[9]
  solubility: 309 µM (≈ 140 µg/mL)
[10]
  MTD: 100 µM
[11]
  Activity: Non-Toxic
[12]
  Activity: Active
[13]
  Activity: inactive
[14]
  Activity: Active
[15]
  Activity: Non-Toxic
